Test results taken from PMC5880497, “Interaction of lecithin:cholesterol acyltransferase with lipid surfaces and apolipoprotein A-I-derived peptides” (Journal of Lipid Research, 2018).
pKd: −log10 of the molar value. No end group written: not given here.

Assays:
[1] = biological target: T1, glycosylated human LCAT protein (Homo sapiens, UniProt P04180); test: MP-SPR binding of LCAT to immobilised biotin-labelled apoA-I-derived peptides; settings: N-terminal biotin-peptide on streptavidin-coated sensor, LCAT 156-5,000 nM serial injections of 15 min, 10 μl/min, buffer A pH 7.4, 293 K, Langmuir fit
T1 construct: purchased Sino Biological Inc., Beijing, China; host or cells: human cells
T1 sequence (P04180 25-440): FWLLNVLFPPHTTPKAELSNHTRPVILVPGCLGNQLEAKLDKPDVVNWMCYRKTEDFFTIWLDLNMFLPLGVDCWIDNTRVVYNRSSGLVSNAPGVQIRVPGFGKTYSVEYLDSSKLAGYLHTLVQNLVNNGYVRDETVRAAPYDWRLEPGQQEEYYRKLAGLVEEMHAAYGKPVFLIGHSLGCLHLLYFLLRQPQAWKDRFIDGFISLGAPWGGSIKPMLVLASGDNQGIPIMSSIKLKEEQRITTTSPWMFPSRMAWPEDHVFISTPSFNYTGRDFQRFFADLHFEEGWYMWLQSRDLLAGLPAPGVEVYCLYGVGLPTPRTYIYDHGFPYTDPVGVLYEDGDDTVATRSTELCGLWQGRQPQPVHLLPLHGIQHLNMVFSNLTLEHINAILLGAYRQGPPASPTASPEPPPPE
Protocol: POPC dissolved in chloroform (25 mg/ml) was obtained from Avanti Polar Lipids (Alabaster, AL). Calcium chloride, HEPES, CHAPS, sodium chloride, EDTA, sodium azide, and potassium dihydrogen phosphate were obtained from Merck Sigma-Aldrich (Darmstadt, Germany). Potassium chloride was obtained from Honeywell Riedel de Haën (Seelz, Germany); disodium hydrogen phosphate was obtained from Fisher Scientific (Hampton, NH). Peptides and N-terminal biotin-labeled peptides were synthesized by Peptide Protein Research Ltd., Hampshire, UK and had the following amino acid sequences: i) 122-142, […]; ii) 135-155, […]; iii) 150-170, […]; iv) 150-170-Y166F, […]; and v) 185-205, […]. Lyophilized glycosylated human LCAT protein (Sino Biological Inc., Beijing, China; a recombinant protein produced in human cells) was reconstituted with 400 μl of ultrapure sterile water to yield LCAT at 5 μM in PBS (manufacturer specifications). Ultrapure water used for preparation of the buffer and in all measurements was prepared with a Milli-Q purification system, having a resistivity of 18 MΩ·cm and TOC level of <5 ppm. The following buffers were used: 20 mM PBS, 1 mM EDTA, 1 mM Na azide (pH 7.4) (buffer A); and 20 mM HEPES and 150 mM NaCl (pH 7.4) (buffer B).
Measurements were performed with a multi-parameter SPR Navi™ 200 (BioNavis Ltd., Tampere, Finland) instrument. The setup was equipped with two incident laser wavelengths, 670 nm and 785 nm, two independent flow channels, inlet tubing and outlet (waste) tubing, and an autosampler. Both of the flow channels were measured simultaneously with 670 nm and 785 nm incident light. The measurement temperature was kept constant at 293° K. Biotin-coated SPR sensors (Bionavis Ltd.) were placed in the flow-cell. The flow rates used for the streptavidin interaction with biotin, biotin-peptides with streptavidin, and for LCAT interaction with immobilized peptides were 10 μl/min. SPR spectra were recorded after introduction of buffer A into the flow-cell for 10–30 min until a stable baseline was achieved, after which the surface was fully saturated with streptavidin during a 10 min serial injection at 1.9 μM to saturate the SPR sensor. It was observed that after 5 min the SPR sensor was fully coated with streptavidin; therefore, the method was adapted to 5 min. In the second phase of the measurement, in DMSO solubilized biotin-peptides with a final concentration of 100 μM were injected in parallel into both flow channels for 7 min at […] to cover the SPR sensor fully, i.e., until all streptavidin bindings sites were fully occupied. Parallel injections ensured that two peptides were analyzed simultaneously. Increasing concentrations of LCAT were then injected into both channels via serial injection, to ensure the lowest variation of LCAT injection for 15 min at increasing concentrations (156, 313, 625, 1250, 2,500, and 5,000 nM) to determine the binding constant of the LCAT-peptide complexes. The data was fitted in OriginPro (v. 8.6, OriginLab Corp., Northampton, MA) according to the Langmuir model to obtain the dissociation constants (Kd) and the responses of saturated binding (Rmax): R=Rmax/1+Kd/c
where R is the final response after each injection and c is the concentration of LCAT in each injection.
To also elucidate the specificity of different peptide regions against LCAT, we carried out MP-SPR experiments to determine dissociation constants (Kd) for the LCAT-peptide complexes. […]

[2] = QCM binding of LCAT, peptides or LCAT plus peptide to a POPC supported lipid bilayer; settings: POPC SLB, LCAT 37.5 nM in buffer A, without apoA-I or peptide
Protocol: Prior to the QCM measurements, the PBS buffer formed after reconstitution of LCAT was exchanged for buffer A due to the extremely high sensitivity of the QCM method to slight differences in the ionic strength of the background buffer. The LCAT solution was placed in an Amicon Ultra-0.5 10K centrifugal filter device (Merck Millipore Ltd., Tullagreen Carrigtohill, Ireland) and equal volumes of buffer A were filtered through 10 times at 14,000 g, after which 400 μl of buffer A were added to fully recover LCAT at 5 μM. The peptides were dissolved into buffer A at a final concentration of 100 μM. An impedance-based QCM instrument (KSV Instruments Ltd., Helsinki, Finland) was used for the measurements. The measurement temperature was kept constant at 293° K. Before measurements, silica-coated QCM sensors (Q-Sense Inc./BiolinScientific, Västra Frölunda, Sweden) were first flushed with 70% ethanol and ultrapure water, dried under nitrogen flow, and finally oxygen plasma treated (PDC-002; Harrick Plasma, Ithaca, NY) for 5 min at 29.6 W and 133-173 Pa. Samples were injected into the measurement chamber with a peristaltic pump system (Ismatec/Cole-Parmer GmbH, Wertheim, Germany). […] Neither LCAT nor peptides induced changes in viscoelastic properties of the bilayer, which was seen as negligible changes in the recorded energy dissipation. […]

[3] = LCAT with small unilamellar vesicles in the absence of apolipoproteins; cited from earlier work
Source text: To assess the possibility of the second hypothesis, we calculated the binding free-energies for LCAT in open and closed states. As shown by the PMF profiles in Fig. 5A, the lid-open state (ΔGwater→lipid = −28 ± 1 kJ/mol) is not able to bind so strongly to lipids when compared with the lid-closed state (ΔGwater→lipid = −34 ± 1 kJ/mol), although the previous findings indicated a deeper lipid interaction for the open state (Fig. 3B). The value for the closed state is well in agreement with existing experimentally determined dissociation constants giving binding a free-energy value of −36 kJ/mol f ...

Row | pKd [1] | Substance | Binding of LCAT alone to the POPC membrane [2] | Binding free-energy from experimentally determined dissociation constants [3] [kJ/mol]
1 | 6.54 | DRARAHVDALRTHLAPYSDEL [150-170] | – | –
2 | 5.33 | GGARLAEYHAKATEHLSTLSE [185-205, reference compound] | – | –

The next lines start with the substance.

Row | Substance | pKd [1] | Binding of LCAT alone to the POPC membrane [2] | Binding free-energy from experimentally determined dissociation constants [3] [kJ/mol]
3 | DRARAHVDALRTHLAPFSDEL [150-170-Y166F] | 5.73 | – | –
4 | HELQEKLSPLGEEMRDRARAH [135-155] | 6.09 | – | –
5 | LRAELQEGARQKLHELQEKLS [122-142] | 5.99 | – | –
6 | lecithin:cholesterol acyltransferase [LCAT] | – | binds to the POPC membrane without apoA-I | -36
